# Test results: patent US9145385B2, “Crystalline salts of R)-3-[6-amino-pyridin-3-yl]-2-(1-cyclohexy1-1H-imidazol-4-yl)-propionic acid” (Sanofi, priority 2011, dated 2015)
# Columns and labels:
# [1] = Chemical stability under elevated temperature and humidity; assay type: physicochemical; conditions: result in words
# [2] = Dynamic Vapor Sorption (DVS) moisture sorption/desorption isotherm at 25° C.; assay type: physicochemical
# Description: Moisture sorption/desorption isotherms were recorded on a SPS11-10μ from Projekt Messtechnik (Ulm, Germany). One cycle was run at 25° C., in which the sample was first stepwise decreased to 0% RH and then the relative humidity was stepwise increased from 0 to 95% and the weight of the sample was measured. Typical total measurement times for both cycles were about 20 to 30 hours.
# The measurement was performed as disclosed in Example 7 with (R)-3-[6-amino-pyridin-3-yl]-2-(1-cyclohexyl-1H-imidazol-4-yl)-propionic acid (free acid, amorphous) and the received data are shown in the following table 2.
compound,measurement,setting,value
Nc1ccc(C[C@@H](C(=O)O)c2cn(C3CCCCC3)cn2)cn1 [(R)-3-[6-amino-pyridin-3-yl]-2-(1-cyclohexyl-1H-imidazol-4-yl)-propionic acid],chemical stability,[1],chemically not stable
same,enantiomeric purity on storage,[1],reduced within a short time
"Nc1ccc(CC(C(=O)O)c2cn(C3CCCCC3)cn2)cn1 (stereo not shown) [3-[6-amino-pyridin-3-yl]-2-(1-cyclohexyl-1H-imidazol-4-yl)-propionic acid, reference compound]",hygroscopicity (absorption or adsorption of water molecules from the surrounding environment),[2]; result in words,hygroscopic
Nc1ccc(C[C@@H](C(=O)[O-])c2cn(C3CCCCC3)cn2)cn1.[Na+] [(R)-3-[6-amino-pyridin-3-yl]-2-(1-cyclohexyl-1H-imidazol-4-yl)-propionic acid sodium salt monohydrate],desorption of water,"[2]; DVS 25° C., at 0.2% RH, phase transition monohydrate to anhydrate",−4.4%
